Where two headings read alike, the source gives them in different places.

Data set [1] deals with human hepatoblastoma cell line (HepG2). As to conditions: literature value; read-out: reported IC50; cited from earlier work.
The subject of a further data set is mouse EL4 thymoma cells. The conditions noted are these: 240 μg/kg s.c. daily during 12 days, C57BL16 mice.
The test system of data set [2] is human hepatoblastoma cell line (HepG2). In words: Cytotoxicity MTT assay. In kind it is cell-based. The conditions noted are these: HepG2, 72 hrs. The method, then:
Cytotoxicities of doxorubicin and its PLGA oligomer conjugates released from nanoparticles were determined against human hepatoblastoma cell line (HepG2) obtained from Korea Research Institute of Bioscience and Biotechnology. Free doxorubicin and the released fraction from nanoparticles for 19 days incubation were used for determining the inhibition of cell growth using a tetrazolium dye (MTT) assay according to the previously established method [R. I. Freshney, Measurement of Viability and Cytotoxicity, Chapter 19 in Culture of Animal Cells, Third Edition., Wiley-Liss Inc., New York, 1994, pp. 287–307]. Dulbecco's modification of Eagle's MEM (DMEM) was used as a major cell growth medium and a humidified atmosphere (5% CO2) was maintained for cell culture. HepG2 cells harvested in a logarithmic growth phase were seeded on 96 wells at a cell density of 5×10^3 cells/ml. After incubating the cells in a logarithmic phase with various concentrations of free doxorubicin and the released fraction for 72 hrs, the MTT assay was performed and the percentage of cell viability was then determined.

The conditions of data set [3]: with polyester polymer carrier; cited from earlier work.

Procedure for mouse EL4 thymoma cells: Antitumor activity against solid tumor of free doxorubicin, free PLGA, doxorubicin encapsulated in nanoparticles and doxorubicin conjugated with nanoparticles was evaluated with mouse EL4 thymoma cells. EL4 Cells (2×10^4 cells in 0.1 ml of PBS pH 7.4 buffer) were transplanted into C57BL16 female mice (10 weeks old) subcutaneously on day 0 and drug injection started on day 10, when tumor diameter reached approximately 2 mm.
The mice were divided into five different groups, each group consisting of 6 mice. The first group, control group, was s.c. injected 100 μl PBS pH 7.4 daily during 12 days and the second group free doxorubicin (240 μg/kg body weight). However, the third group was s.c. injected placebo microsphere daily in the first two days, the fourth group nanoparticle conjugated with doxorubicin (2.4 mg/kg body weight) and the fifth group, doxorubicin encapsulated in nanoparticle (1.2 mg/kg body weight).

On to `COc1cccc2c1C(=O)c1c(O)c3c(c(O)c1C2=O)C[C@@](O)(C(=O)CO)C[C@@H]3O[C@H]1C[C@H](N)[C@H](O)[C@H](C)O1` [free doxorubicin, doxorubicin], for which the IC50 was 7.3 µM in data set [1] and 8.9 µM in data set [2]. For the same compound, in the data set on mouse EL4 thymoma cells, the “antitumor activity (tumor diameter)” value was “significant tumor growth inhibition”.
As to gentamycin, the initial burst effects entry in data set [3] is “over 50%”.

The values above are taken from US7163698B2, “Controlled drug delivery system using the conjugation of drug to biodegradable polyester” (priority 1998, dated 2007).
